Experiments:
[1] = system: HCT116 human colon cancer cell line; experiment: cell growth assay (trypan blue cell count) on HCT116; type: cell-based; settings: HCT-116, 48 h, read-out: growth inhibition of the cancer cells
Protocol: (§1) The A549 and HCT-116 cells were maintained in RPMI 1640 or McCoy's 5A (Wisent, St-Bruno, QC, Canada) containing 10% FBS and 10 units/ml penicillin, 100 μg/ml streptomycin. Cells were grown in a 5% CO2 incubator at 37° C. Cells were untreated or treated with SCF compounds
(§2) A predefined number of either A549 or HCT-116 cells were allowed to grow in 24 wells plates (1×10^4 cells/well) for 3 days until cells reached 70% confluence. Then, cells were starved in RPMI or McCoy's 5A medium without FBS for 8 h. Then, the culture medium was replaced with RPMI or McCoy's 5A+0.2% FBS and 3 μM of test compounds were added to each well. Culture media were changed every 24 h and cells were treated for 48 h. After 48, the medium was removed from the culture plates and 0.05% trypsin-EDTA was used to detach the cells from the surface of the culture plates. The harvested cells were counted, both the viable and dead ones, using a Countess Automated Cell Counter (Invitrogen Inc.). Briefly, for each condition an appropriated cell dilution was prepared from the harvested cells and an aliquot was mixed with an equal volume of 0.4% trypan blue, and 10 μl was transferred into each side of a Countess™ chamber slide. All concentrations tested were performed in triplicata and were representative of 5 independent experiments.

[2] = human, in vivo
Protocol: Controlled amount of boiled pasta was eaten after the 4 h time point. An initial blood sample (400 μl) was collected using a lancet at a fingertip into heparin tubes followed by samples at 1, 2, 3, 4, 5, 6, 7 and 8 hour after ingestion. Plasma was separated and immediately analysed for fatty acid composition.
The relative bioavailability of fatty acids from composition 2 compared to fish oil is calculated with the formula:
The AUC (calculates area under the curve for concentration vs. time data) is calculated using linear trapezoidal rule. […] The relative bioavailability of compound 1 and compound 5 is calculated with the same formula:

HCT-116 cells = experiment: in vivo tumor xenograft, HCT-116 in CD-1 nude mice; settings: per os 618 mg/kg daily from the day after the tumor reach; vs control (corn oil)
Protocol: In vivo tumor xenograft experiments. Male and female CD-1 nude mice were obtained from Charles River Laboratories (Montreal, QC, Canada). All studies involving mice were approved by the institutional animal care committee. Human A549 or HCT-116 xenografts were established in 4-week-old CD-1 nude mice. Mice were subcutaneously inoculated with 0.2 ml of a solution of 1×10^6 A549 or HCT-116 cells on the right flank. Mice were randomly assigned into 2 groups, control (untreated) and compound 1, 5 or 6 treated (n=6 per group). […] Tumor volumes (V) were calculated using the formula: V=(a×b2)/2, where “a” is the largest superficial diameter and “b” the smallest.

[3] = system: A549 human lung cancer cell line; experiment: cell growth assay (trypan blue cell count) on A549; type: cell-based; settings: 48 h, read-out: growth inhibition of the cancer cells
Protocol: as §1, §2

A549 cells = experiment: in vivo tumor xenograft, A549 in CD-1 nude mice; settings: per os 618 mg/kg daily from the day after cell inoculation; vs control (corn oil)
Protocol: In vivo tumor xenograft experiments. Male and female CD-1 nude mice were obtained from Charles River Laboratories (Montreal, QC, Canada). All studies involving mice were approved by the institutional animal care committee. Human A549 or HCT-116 xenografts were established in 4-week-old CD-1 nude mice. Mice were subcutaneously inoculated with 0.2 ml of a solution of 1×10^6 A549 or HCT-116 cells on the right flank. Mice were randomly assigned into 2 groups, control (untreated) and compound 1, 5 or 6 treated (n=6 per group). Compound 1, 5 or 6 were administrated per os (618 mg/kg) daily following cell inoculation. Tumor volumes (V) were calculated using the formula: V=(a×b2)/2, where “a” is the largest superficial diameter and “b” the smallest.

| relative bioavailability of compound 1 compared to compound 5 [2] | Compound | inhibition at 3 µM [1] [%] | tumor progression (tumor volume) (HCT-116 cells) | inhibition at 3 µM [3] [%] | tumor progression (tumor volume) (A549 cells) |
| --- | --- | --- | --- | --- | --- |
| 2.20 | CC/C=C\C/C=C\C/C=C\C/C=C\C/C=C\CCCCCC(=O)OCC(O)CO (stereo not shown) [compound 1] | > 50 | tumor progression was immediately stopped and tumor volume significantly decrease over time | – | – |
| – | CC/C=C\C/C=C\C/C=C\C/C=C\C/C=C\C/C=C\CCC(=O)OCC(O)CO (stereo not shown) [compound 5] | – | – | > 50 | tumor progression was significantly reduced |
| – | CC/C=C\C/C=C\C/C=C\C/C=C\C/C=C\CCCC(=O)OCC(O)CO (stereo not shown) [compound 6] | > 50 | tumor progression was immediately stopped and tumor volume slightly decrease over time | – | – |

From US9233915B2, “Polyunsaturated fatty acid monoglycerides, derivatives, and uses thereof” (SCF PHARMA INC., priority 2007, dated 2016)
